Results taken from PMC11986975, “A Cdk5 inhibitor restores cognitive function and alleviates type 2 diabetes in mice” (iScience, 2025).

Columns and labels:
Cdk2/CylA2 = assay: Specificity kinase assay, Cdk2 with cyclin A2; format: biochemical; conditions: inhibitor 0-100 nM
From the text: To assess the specificity of inhibitors BLINK11 and BLINK15 against CDK5, we investigated their effects on different Cdks, i.e., Cdk1, Cdk2, and Cdk9 that share structural homology with CDK5. […] However, these IC50 values were higher than those observed for CDK5/p35 and CDK5/p25. […] Overall, BLINK11 and BLINK15 can selectively target CDK5 at lower concentrations. […]
(§1) IC50 of all the kinases for both BLINK11 and BLINK15 inhibitors.

Cdk9/CylT = assay: Specificity kinase assay, Cdk9 with cyclin T; format: biochemical; conditions: inhibitor 0-100 nM
From the text: To assess the specificity of inhibitors BLINK11 and BLINK15 against CDK5, we investigated their effects on different Cdks, i.e., Cdk1, Cdk2, and Cdk9 that share structural homology with CDK5. […] However, these IC50 values were higher than those observed for CDK5/p35 and CDK5/p25. […] Overall, BLINK11 and BLINK15 can selectively target CDK5 at lower concentrations.
ligands are illustrated with red lines. The RMSD plots for the interactions of BLINK11 and
Figure S3: BBB Permeability assay and Evaluation of non-specific kinase inhibition by
BLINK11 and BLINK15 (A-B) PAMPA assay results of BLINK11 and BLINK15 compound.
as §1
(1 picture or pasted object on this page, not shown here)

HFD-fed mice [1] = assay: Rotarod test in HFD mice; format: in vivo; conditions: i.p., 20 days
Procedure: Rats and mice have been tested for motor coordination using the rotarod test. The animals were placed on a horizontal rod that rotates around its long axis for this test; in order to remain upright and prevent sliding off, the animal must move ahead. Every 5 min, the rod’s speed was raised, and the number of falls were counted to assess the motor coordination.[23]^,[55]

HFD-fed mice [2] = assay: Y-maze test in HFD mice; format: in vivo; conditions: i.p., 20 days
Procedure: As previously mentioned, the Y-maze test was utilized to evaluate the mouse groups' short-term spatial memory The Y-maze test was used to assess short-term spatial memory in the mouse groups. The apparatus consists of three arms arranged in a Y-shape, typically labeled A, B, and C, with each arm having the same length and width. Mice were initially placed in one arm (usually arm A) and allowed to explore freely for 5 min, with one of the other arms blocked off, restricting exploration to the starting arm and the remaining open arm. After a 5-min delay, the mouse was reintroduced to the maze with all arms accessible. The time spent in each arm and the number of entries into each arm were recorded over a 5-min period. […] We also evaluated the mice’s spontaneous alternation rate during the Y-maze test. Spontaneous alternation reflects working memory, as it refers to the mouse’s tendency to enter a less recently visited arm. The sequence and number of arm entries were tracked, with an alternation defined as consecutive entries into all three arms without repetition (e.g., A-B-C, B-C-A).[59]^,[60]^,[61] […] As a result, we evaluated the novel arm’s exploration according to many criteria.Spontaneous Alternation (%) = {(Number of alternations)/ (Total arm entries−2)} ×100

HFD-fed mice [3] = assay: Morris water maze (MWM) in HFD mice; format: in vivo; conditions: i.p., both doses 20 and 40 mg/kg/day, 20 days
Procedure: The MWM test was conducted to evaluate memory and spatial learning in mice, using visual cues placed on the walls of a water tank. For five consecutive days, the mice were trained in the water maze, with each session involving the release of the mice from various starting points and the task of locating a hidden platform within the maze. Each day, the mice underwent four trials, following the established protocol by Charles V. Vorhees (2006). The time taken (latency) for each mouse to find the platform was measured and recorded throughout the training period.
On the sixth day, a probe test was conducted to assess reference memory. The hidden platform was removed, and the mice’s behavior was observed as they navigated the maze. The time spent in the target quadrant and the time taken to reach the former platform location were recorded. This probing phase aimed to evaluate the mice’s retention of the spatial information and memory acquired during the training sessions. The MWM test evaluated memory and spatial learning in mice using visual cues in a water tank. Over five days, mice were trained to find a platform within the tank, undergoing four trials daily as per Charles V. Vorhees' protocol. On day six, a probing experiment assessed reference memory. […] Time spent and latency to reach the target quadrant were recorded. […]

CDK5 = tested on: T1, CDK5; assay: Cdk5 kinase activity of Cdk5 pulled down from hippocampus lysate of treated HFD mice; format: in vivo; conditions: i.p., 20 days, in the presence of p25
T1 construct: Cdk5 kinase activity using pulled down Cdk5 from the hippocampus lysate of the mouse groups; from tissue; host or cells: hippocampus / brain lysate of male C57BL/6J mice on high-fat diet
Procedure: Cdk5 was immunoprecipitated from N2A cells and brain lysate using a Cdk5 antibody. Kinase assays were performed using a Promega ADP-Glo Kinase Assay kit with Cdk5/p35 and Cdk5/p25 complexes. Histone was used as a substrate to test kinase activity Cdk5 was immunoprecipitated from N2a cells overexpressing Cdk5/p35 and Cdk5/p25, following treatment with BLINK11 and BLINK15 inhibitors at concentrations of 50nM and 100nM, using a Cdk5 antibody. A kinase assay was subsequently conducted as described in Bankston et al.[53] Additionally, Cdk5 was precipitated from mouse brain lysates treated with BLINK11 and BLINK15 inhibitors. The immunoprecipitation was performed with 100 μL of A/G beads, 2 μg of Cdk5 antibody, and 150 μg of cell and brain lysates, with elution carried out using a urea elution buffer. The kinase assay was conducted using the ADP-Glo Kinase Assay Kit (Promega) with immunoprecipitated Cdk5, ATP, and 1–2 μg of histone as the substrate.

[4] = tested on: neurodegenerative markers in hippocampus; assay: Western blot of hippocampal proteins (Cdk5, p35/p25, NF-H, p-NF-H, NF-L, tau, p-tau) in treated HFD mice; format: in vivo; conditions: i.p.
Procedure: For tissue lysate preparation the mice were sacrificed following the Institution’s ethical guidelines. The hippocampus was isolated from the rest of the brain and treated in a tissue lysis solution with a protease and phosphatase inhibitor cocktail. Western blotting was performed to study the expression patterns of the protein of interest. Each well of a polyacrylamide gel was loaded with an identical amount of protein lysate (40–50 μg), which was then transferred to the nitrocellulose membrane. In 1X PBS with 0.1% (v/v) Tween 20, the main antibodies were diluted.

amyloid beta (Aβ) 1–42 = assay: Amyloid beta 1-42 in hippocampus of treated HFD mice (ELISA and immunohistochemistry); format: in vivo; conditions: i.p., 40 mg/kg

SMILES | Inhibition of Cdk2 (with cyclin A2) (Cdk2/CylA2) | Inhibition of Cdk9 (with cyclin T) (Cdk9/CylT) | Muscle strength and motor coordination on the rotarod (HFD-fed mice [1]) | Y-maze alteration percentage (HFD-fed mice [2]; 20 mg/kg/day) | Y-maze alteration percentage (HFD-fed mice [2]; 40 mg/kg/day) | Water maze time to reach the platform (spatial learning and memory) (HFD-fed mice [3]) | CDK5 activity in hippocampal lysate (CDK5) | Hippocampal expression levels of CDK5 ([4]; 20 days) | neurofilament light chain (NF-L) levels in hippocampus ([4]; 20 days) | p25 generation in hippocampus ([4]; 20 days) | phospho-tau-396Ser levels in hippocampus ([4]; 20 days) | phospho-NF-H levels in hippocampus ([4]; particularly at a higher dose) | Aβ 1–42 accumulation in the hippocampus (amyloid beta (Aβ) 1–42)
O=C(COc1ccccc1C(=O)Nc1cccc(Cl)c1Cl)Nc1ccc(N2CCOCC2)c(Cl)c1 [BLINK11, 2-(2-((3-chloro-4-morpholinophenyl)amino)-2-oxoethoxy)-N-(2,3-dichlorophenyl)benzamide] | minimal inhibition | minimal inhibition | rescue effect | did not exhibit any rescue effect | the decrease in alteration percentage was recovered | rescue behavior | significant reduction in CDK5 activity | remain unaltered | restored | remains unchanged | significantly decreased | significantly reduced | significantly reduced
COc1ccc(C(=O)C[C@@]2(O)C(=O)N(Cc3ccccc3)c3ccc(Br)cc32)cc1[N+](=O)[O-] [BLINK15] | minimal inhibition | minimal inhibition |  |  |  | rescue behavior | significant reduction in CDK5 activity | remain unaltered |  | remains unchanged |  |  | 
